Earlier results as cited in patent US11786526B2, “Pharmaceutical composition comprising rosuvastatin and ezetimibe and a preparation method thereof” (SANOFI, priority 2016, dated 2023).

Experiments:
[1] = not given; remark: listed apart in the source

Solubility in water | Stability in an acidic environment [1] | Structure (SMILES)
almost insoluble in water |  | O=C1[C@H](CC[C@H](O)c2ccc(F)cc2)[C@@H](c2ccc(O)cc2)N1c1ccc(F)cc1 [Ezetimibe, (3R,4S)-1-(4-fluorophenyl)-3-[(3S)-3-(4-fluorophenyl)-3-hydroxypropyl]-4-(4-hydroxyphenyl)azetidin-2-one]
 | unstable in an acidic environment | CC(C)c1nc(N(C)S(C)(=O)=O)nc(-c2ccc(F)cc2)c1/C=C/[C@@H](O)C[C@@H](O)CC(=O)O [rosuvastatin, (3R,5S,6E)-7-[4-(4-fluorophenyl)-2-(N-methylmethanesulfonamido)-6-(propan-2-yl)pyrimidin-5-yl]-3,5-dihydroxyhept-6-enoic acid]
